Source: ChEMBL document CHEMBL4024787, “Target Identification and Mode of Action of Four Chemically Divergent Drugs against Ebolavirus Infection” (J Med Chem, 2018)

Tests used:
Ebolavirus [1] = test: microbe, parasite or virus in culture; assay type: functional; conditions: Orthoebolavirus, Vero C1008, 48 h
Ebolavirus [2] = test: microbe, parasite or virus in culture; assay type: functional, cell-based; conditions: Orthoebolavirus, HepG2, 48 h
[3] = target: T1, Envelope glycoprotein (Zaire ebolavirus (strain Mayinga-76) (ZEBOV) (Zaire Ebola virus)) (UniProt Q05320); test: Binding affinity to Ebola virus Zaire Mayinga-76 recombinant GP protein assessed as change in melting temperature at 500 uM by SYPRO orange dye-based fluorescence assay; conditions: 1976
T1 sequence (whole entry): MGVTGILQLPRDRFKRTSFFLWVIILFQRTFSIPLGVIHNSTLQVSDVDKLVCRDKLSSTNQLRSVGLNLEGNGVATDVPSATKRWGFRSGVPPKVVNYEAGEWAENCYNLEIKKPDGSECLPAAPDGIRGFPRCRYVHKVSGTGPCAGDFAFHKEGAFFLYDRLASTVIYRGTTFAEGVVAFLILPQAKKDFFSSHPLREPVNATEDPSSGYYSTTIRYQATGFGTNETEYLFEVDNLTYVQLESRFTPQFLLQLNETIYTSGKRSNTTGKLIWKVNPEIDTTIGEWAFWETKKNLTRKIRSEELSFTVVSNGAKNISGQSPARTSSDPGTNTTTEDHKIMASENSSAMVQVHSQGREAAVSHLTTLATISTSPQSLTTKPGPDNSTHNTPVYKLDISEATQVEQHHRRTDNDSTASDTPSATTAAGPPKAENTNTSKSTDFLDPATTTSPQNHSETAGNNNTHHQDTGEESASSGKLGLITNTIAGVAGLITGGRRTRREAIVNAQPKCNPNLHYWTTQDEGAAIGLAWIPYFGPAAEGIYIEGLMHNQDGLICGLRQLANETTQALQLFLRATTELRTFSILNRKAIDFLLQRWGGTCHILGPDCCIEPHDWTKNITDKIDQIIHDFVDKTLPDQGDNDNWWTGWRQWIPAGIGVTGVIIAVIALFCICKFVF

Envelope glycoprotein = target: T2, Envelope glycoprotein (Zaire ebolavirus (strain Mayinga-76) (ZEBOV) (Zaire Ebola virus), UniProt Q05320); test: Binding affinity to Ebola virus Zaire Mayinga-76 recombinant GP protein by SYPRO orange dye-based fluorescence assay; design: species or system 1976
T2 sequence (Q05320 whole entry): T1 sequence (whole entry)

Compound	IC50 (Ebolavirus [1]) [µM]	IC50 (Ebolavirus [2]) [µM]	ΔTm [3] [°C]	Kd (Envelope glycoprotein) [µM]
CN(C)CCOc1ccc(/C(=C(/CCCl)c2ccccc2)c2ccccc2)cc1 [TOREMIFENE]	0.162	0.026		
CN1[C@@H]2CC[C@@H]1CC(OC(c1ccccc1)c1ccccc1)C2 (relative stereo)			-6	
Fc1ccc([C@@H]2CCNC[C@H]2COc2ccc3c(c2)OCO3)cc1 [PAROXETINE]	7.45	1.38	-4	650
CN[C@H]1CC[C@@H](c2ccc(Cl)c(Cl)c2)c2ccccc21 [SERTRALINE]			-3	
CC(C)COCC(CN(Cc1ccccc1)c1ccccc1)N1CCCC1 (configuration not stated) [BEPRIDIL]	5.08	3.21	-6	290
